Results from paper PMC4774911, “Biochemical Screening of Five Protein Kinases from Plasmodium falciparum against 14,000 Cell-Active Compounds” (PLoS ONE, 2016).
pKd: −log10 of the molar value. Several values for one entry are separate records, joined by “and”; a condition that tells them apart may be missing. Equal entries are not always repeated.

What was measured:
Test in all cases: biochemical
Parameters in all cases: endogenous in cells; host or cells: K562 cell extract; species or system K562 (extract); replicate k of n = 2 (each experiment ID is one independent experiment; two experiment IDs per compound)
Details in all cases: read-out: KDapp
MAP3K7 = target: T1, MAP3K7 (Homo sapiens, UniProt O43318)
T1 sequence (O43318 1-606): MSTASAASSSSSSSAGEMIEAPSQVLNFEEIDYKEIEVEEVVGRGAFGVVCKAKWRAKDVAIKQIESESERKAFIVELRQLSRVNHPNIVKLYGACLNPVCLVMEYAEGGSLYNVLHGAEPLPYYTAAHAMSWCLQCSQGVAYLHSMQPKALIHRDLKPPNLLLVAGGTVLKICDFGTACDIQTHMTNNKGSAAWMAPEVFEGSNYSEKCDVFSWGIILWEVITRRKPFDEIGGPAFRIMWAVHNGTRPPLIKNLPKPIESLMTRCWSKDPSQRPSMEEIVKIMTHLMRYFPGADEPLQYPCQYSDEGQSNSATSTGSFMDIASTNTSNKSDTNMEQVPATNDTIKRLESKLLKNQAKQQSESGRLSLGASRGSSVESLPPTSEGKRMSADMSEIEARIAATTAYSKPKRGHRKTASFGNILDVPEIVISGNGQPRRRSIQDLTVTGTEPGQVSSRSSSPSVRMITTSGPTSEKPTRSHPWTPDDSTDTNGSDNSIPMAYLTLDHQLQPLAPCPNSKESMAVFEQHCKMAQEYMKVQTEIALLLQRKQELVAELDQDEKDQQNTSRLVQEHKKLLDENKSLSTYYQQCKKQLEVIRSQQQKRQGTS

JAK2 = JAK2 (Homo sapiens, UniProt O60674)
PHKG2 = target: T2, PHKG2 (Homo sapiens, UniProt P15735)
T2 sequence (P15735 1-406): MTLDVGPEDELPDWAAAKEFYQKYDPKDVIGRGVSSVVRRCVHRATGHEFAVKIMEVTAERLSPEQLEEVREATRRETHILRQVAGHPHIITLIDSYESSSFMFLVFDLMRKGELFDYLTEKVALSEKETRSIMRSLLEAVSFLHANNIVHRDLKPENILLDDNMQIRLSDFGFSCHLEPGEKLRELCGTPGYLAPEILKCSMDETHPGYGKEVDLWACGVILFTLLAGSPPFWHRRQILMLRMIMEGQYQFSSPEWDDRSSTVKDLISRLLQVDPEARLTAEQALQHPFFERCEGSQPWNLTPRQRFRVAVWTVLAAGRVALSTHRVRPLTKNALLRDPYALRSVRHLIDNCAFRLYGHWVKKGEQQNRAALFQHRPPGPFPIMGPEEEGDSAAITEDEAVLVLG

PIM1 = PIM1 (Homo sapiens, UniProt P11309)
BTK = BTK (Homo sapiens, UniProt Q06187)
KIT = KIT (Homo sapiens, UniProt P10721)
STK38L = STK38L (Homo sapiens, UniProt Q9Y2H1)
STK38L, sequence (Q9Y2H1 whole entry): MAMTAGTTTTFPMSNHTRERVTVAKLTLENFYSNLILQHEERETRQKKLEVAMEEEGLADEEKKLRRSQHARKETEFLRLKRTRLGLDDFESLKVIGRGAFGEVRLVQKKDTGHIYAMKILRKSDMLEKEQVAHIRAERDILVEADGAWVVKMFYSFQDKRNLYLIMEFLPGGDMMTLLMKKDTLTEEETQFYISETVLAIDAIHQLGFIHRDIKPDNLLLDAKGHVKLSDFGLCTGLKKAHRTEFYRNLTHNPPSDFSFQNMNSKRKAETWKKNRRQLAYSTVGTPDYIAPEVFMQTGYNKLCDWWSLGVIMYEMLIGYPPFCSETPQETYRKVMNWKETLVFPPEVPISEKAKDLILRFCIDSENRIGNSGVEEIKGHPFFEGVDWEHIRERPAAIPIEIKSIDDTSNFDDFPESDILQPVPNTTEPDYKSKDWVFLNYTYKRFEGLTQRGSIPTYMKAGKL

PIM1, sequence (P11309 whole entry): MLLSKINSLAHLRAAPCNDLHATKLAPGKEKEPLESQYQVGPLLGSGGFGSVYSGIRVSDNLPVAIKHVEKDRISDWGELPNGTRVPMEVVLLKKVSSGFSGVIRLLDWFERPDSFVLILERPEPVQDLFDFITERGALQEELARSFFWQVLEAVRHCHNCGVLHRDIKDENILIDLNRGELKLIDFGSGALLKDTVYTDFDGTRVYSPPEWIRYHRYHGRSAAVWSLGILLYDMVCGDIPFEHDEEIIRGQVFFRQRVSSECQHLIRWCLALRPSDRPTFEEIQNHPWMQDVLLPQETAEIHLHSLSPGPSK
BTK, sequence (Q06187 whole entry): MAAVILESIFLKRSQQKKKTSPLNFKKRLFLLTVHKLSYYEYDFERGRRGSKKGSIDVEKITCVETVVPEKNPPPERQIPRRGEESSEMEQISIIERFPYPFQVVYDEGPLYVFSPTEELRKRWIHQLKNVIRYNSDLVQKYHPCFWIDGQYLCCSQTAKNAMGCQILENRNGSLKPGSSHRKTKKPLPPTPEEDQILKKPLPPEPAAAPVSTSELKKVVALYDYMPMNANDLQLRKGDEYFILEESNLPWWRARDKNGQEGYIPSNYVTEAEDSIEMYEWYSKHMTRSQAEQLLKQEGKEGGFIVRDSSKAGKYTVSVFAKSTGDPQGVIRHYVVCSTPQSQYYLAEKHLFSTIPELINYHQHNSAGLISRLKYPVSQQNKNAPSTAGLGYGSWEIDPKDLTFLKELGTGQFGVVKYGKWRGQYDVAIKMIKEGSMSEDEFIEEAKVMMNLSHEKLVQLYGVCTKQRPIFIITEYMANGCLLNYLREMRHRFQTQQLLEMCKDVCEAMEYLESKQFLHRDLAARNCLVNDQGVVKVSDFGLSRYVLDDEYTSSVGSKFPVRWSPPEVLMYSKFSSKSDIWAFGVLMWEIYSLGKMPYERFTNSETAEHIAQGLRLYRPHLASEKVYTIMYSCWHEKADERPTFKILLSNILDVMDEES
JAK2, sequence (O60674 whole entry): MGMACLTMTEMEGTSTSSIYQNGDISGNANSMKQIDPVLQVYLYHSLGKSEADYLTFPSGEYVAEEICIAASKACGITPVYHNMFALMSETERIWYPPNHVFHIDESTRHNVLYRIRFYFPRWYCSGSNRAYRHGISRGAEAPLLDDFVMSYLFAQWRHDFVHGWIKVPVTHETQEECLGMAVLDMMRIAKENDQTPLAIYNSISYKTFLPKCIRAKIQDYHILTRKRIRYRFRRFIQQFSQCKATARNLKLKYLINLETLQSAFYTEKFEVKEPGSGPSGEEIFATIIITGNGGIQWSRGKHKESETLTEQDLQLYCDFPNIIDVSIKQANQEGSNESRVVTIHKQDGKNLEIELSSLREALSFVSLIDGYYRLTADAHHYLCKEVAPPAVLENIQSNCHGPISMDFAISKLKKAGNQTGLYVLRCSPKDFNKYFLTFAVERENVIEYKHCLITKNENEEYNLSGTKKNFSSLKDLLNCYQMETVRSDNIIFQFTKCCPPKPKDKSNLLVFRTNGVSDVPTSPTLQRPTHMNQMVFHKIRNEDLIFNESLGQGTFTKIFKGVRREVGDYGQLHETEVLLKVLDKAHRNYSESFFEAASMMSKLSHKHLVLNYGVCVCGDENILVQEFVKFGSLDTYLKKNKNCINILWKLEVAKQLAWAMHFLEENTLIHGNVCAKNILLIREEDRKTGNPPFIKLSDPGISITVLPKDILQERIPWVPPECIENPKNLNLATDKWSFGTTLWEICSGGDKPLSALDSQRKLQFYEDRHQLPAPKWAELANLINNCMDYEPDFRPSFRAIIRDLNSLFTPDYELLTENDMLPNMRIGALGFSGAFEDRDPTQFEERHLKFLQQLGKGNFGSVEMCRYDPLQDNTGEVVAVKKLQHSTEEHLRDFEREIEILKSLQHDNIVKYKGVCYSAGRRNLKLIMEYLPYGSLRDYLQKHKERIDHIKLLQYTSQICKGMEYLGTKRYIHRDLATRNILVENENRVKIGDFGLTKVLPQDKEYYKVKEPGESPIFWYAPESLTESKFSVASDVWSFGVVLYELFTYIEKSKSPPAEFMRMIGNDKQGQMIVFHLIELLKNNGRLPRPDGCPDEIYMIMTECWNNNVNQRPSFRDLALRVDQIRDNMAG
KIT, sequence (P10721 whole entry): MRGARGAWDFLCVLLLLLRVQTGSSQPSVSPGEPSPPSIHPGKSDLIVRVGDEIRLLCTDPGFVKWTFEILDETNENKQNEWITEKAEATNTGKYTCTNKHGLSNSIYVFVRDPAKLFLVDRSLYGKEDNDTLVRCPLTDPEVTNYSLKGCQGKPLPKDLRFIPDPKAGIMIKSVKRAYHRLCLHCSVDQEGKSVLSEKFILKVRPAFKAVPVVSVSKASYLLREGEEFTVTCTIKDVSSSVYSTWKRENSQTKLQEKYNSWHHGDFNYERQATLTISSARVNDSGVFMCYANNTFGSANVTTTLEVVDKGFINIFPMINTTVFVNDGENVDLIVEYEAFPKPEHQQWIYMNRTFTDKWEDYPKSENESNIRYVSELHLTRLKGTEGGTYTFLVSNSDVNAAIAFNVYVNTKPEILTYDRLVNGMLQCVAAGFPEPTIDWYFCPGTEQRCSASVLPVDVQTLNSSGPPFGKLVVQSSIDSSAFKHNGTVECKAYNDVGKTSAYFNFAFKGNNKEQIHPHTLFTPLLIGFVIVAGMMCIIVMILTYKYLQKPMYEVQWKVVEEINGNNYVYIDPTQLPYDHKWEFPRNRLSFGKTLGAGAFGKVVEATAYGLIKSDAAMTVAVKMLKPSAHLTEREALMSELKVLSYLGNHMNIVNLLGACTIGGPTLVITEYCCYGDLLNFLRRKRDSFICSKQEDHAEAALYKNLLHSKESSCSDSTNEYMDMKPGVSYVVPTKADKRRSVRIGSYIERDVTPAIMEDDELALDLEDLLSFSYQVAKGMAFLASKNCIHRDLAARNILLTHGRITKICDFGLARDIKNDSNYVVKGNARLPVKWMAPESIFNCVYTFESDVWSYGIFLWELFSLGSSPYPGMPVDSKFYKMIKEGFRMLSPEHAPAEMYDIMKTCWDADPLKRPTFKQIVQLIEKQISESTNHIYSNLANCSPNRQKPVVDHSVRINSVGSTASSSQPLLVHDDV

With CN1CCN(c2ccc(Nc3ncc(C#N)c(Nc4ccccc4C(N)=O)n3)cc2)CC1.Cl [TCMDC-134116] the pKd (MAP3K7) was 5.83 and 6.09, the pKd (JAK2) was 6.54 and 6.73 and the pKd (PHKG2) was 5.65. The pKd (PIM1) was 5.45 and 5.53, the pKd (BTK) was 6.68 and 6.64 and the pKd (KIT) was 5.96. It also gave a pKd (STK38L) of 6.24.
